Measurements as given in patent US10849904B2, “Methods for treatment of retinal disease by photoreceptor gene expression modulation” (University of Washington, priority 2015, dated 2020).

How the values were obtained:
[1] = system: rhodopsin promoter; test: Dual luciferase rhodopsin promoter reporter assay in HEK293T cells; assay type: cell-based; conditions: 10 μM, 2 days
Source text: Nr2e3, Crx, and Nrl are known to activate rod gene expression by forming a complex at the promoters of rod genes. To test whether PR1 might interfere with this complex, a luciferase reporter assay was used. For this assay, the rhodopsin promoter driving firefly luciferase was co-transfected with Nrl, Nr2e3, or Crx or all of these transcription factors together into HEK293T cells. A large synergy in the activation of the rhodopsin reporter was found with the combination of these three transcription factors (FIG. 6G).
HEK293T cells were transfected with 1 μg of the luciferase reporter BR-225Luc, 1 ng of the control pRL-CMV (Promega) and 100 ng of hNRL-pCMVSport6 (Open Biosystems), hCRX-pCMVSport6 (Open Biosystems), or hNR2E3-pcDNA3.1/HisC in 24 well plates using Lipofectamine 3000 reagent (Thermo Fisher Scientific). Transfection reagents were removed the following day and replaced with media containing DMSO or 10 μM PR1 for 2 days. Cells were lysed and firefly and renilla luciferase activity was measured with the Dual-Luciferase Reporter Assay System (Promega) using a 1420 Multilabel Victor3V plate reader.

[2] = system: retinas from Rho^P23H mice at P12; test: P12 Rho^P23H retinal explants, rod degeneration (ONL nuclei, Gnb1); assay type: cell-based, mouse; conditions: 1 μM, vs DMSO
Source text: The effect of PR1 on Rho expression in adult rods might have potential as a way to slow the degeneration of these cells in dominant forms of retinitis pigmentosa, like Rho^P23H. In this disease, the affected individuals express a mutant form of rhodopsin that is likely inappropriately processed and ultimately leads to the death of the rods. […] The majority of rod cell death in the Rho^P23H transgenic line occurs between P14 and P21. Therefore, explants of retinas from Rho^P23H mice at P12 were made and treated the explants with 1 μM PR1 or DMSO (FIG. 9H). After 6 days in vitro, the retinas were processed for histology. The number of nuclei were counted in the ONL of each retina in the central region 100 μm from the optic nerve head. […] Gnb1 expression was also monitored as another measure of rod photoreceptor preservation because this is not directly affected by PR1 and thus serves as a surrogate for rod number. […]
(§1) RNA was isolated using TRIzol (Invitrogen) and cDNA was synthesized using the iScript cDNA synthesis kit (Bio-Rad) following an intervening DNase treatment with RQ1 RNase-free DNase (Promega). SSO Fast (Bio-Rad) was used for quantitative real-time PCR. For analysis, values were normalized to Gapdh and ΔΔCt between DMSO and compound-treated samples was expressed as percent of DMSO treated controls (100*2^ΔΔCt). […]

[3] = system: Human retinal explants from 113 day post-conception fetuses; test: Human fetal retinal explant culture, qPCR for RHO expression; assay type: cell-based; conditions: 10 μM, vs DMSO
Experimental: Nr2e3 loss-of-function mutations lead to a reduction in rod gene expression. To determine whether the same was true for PR1 (FIG. 6D), explant cultures of P12 retina as above were treated and assayed for other rod photoreceptor genes. After 2 days in culture, PR1 decreased the expression of the rod specific genes Nrl, Nr2e3, Rho, Gnat1, and Pde6b compared to DMSO treatment by qPCR analysis (FIG. 6C). […] To determine the dose-response relationship between PR1 concentration and expression of rod genes, retinas from P12 mice were explanted in media containing DMSO or 0.1, 1, 5, or 10 μM PR1 for 2-3 days and assayed Nrl, Nr2e3, and Rho expression by qPCR. […] PR1 was tested to determine whether it could cause a reduction in Rho expression in human rod photoreceptors as well. Pairs of 113 day post-conception retinas were explanted in media with DMSO or 10 μM PR1 for 7 or 23 days. […]
as §1

Cc1cc(C)cc(NC(=O)CCc2nc3sc4c(c3c(=O)[nH]2)CCCC4)c1 [PR1, N-(3,5-dimethylphenyl)-3-(4-oxo-5,6,7,8-tetrahydro-3H-[1]benzothiolo[2,3-d]pyrimidin-2-yl)propanamide]
activation of the rhodopsin promoter reporter ([1]; HEK293T transfected with Crx and Nrl): large reduction
activation of the rhodopsin promoter reporter ([1]; HEK293T transfected with Nr2e3, Crx and Nrl): large reduction
number of rod photoreceptors (nuclei) in the ONL, 100 μm from the optic nerve head ([2]; 6 days in vitro): nearly twice
Gnb1 expression (surrogate for rod number) [2]: significantly more Gnb1 expression
Rho expression ([3]; 7 days in culture): decreased
Rho expression ([3]; 23 days in culture): decreased
